BigSolDB 2.1

CCCN(CCc1cccs1)[C@H]1CCc2c(O)cccc2C1
solubility (mole fraction)
Conditions | in ethanol | in ethyl acetate | in isopropanol | in isopropyl acetate | in methanol | in methyl acetate | in n-butanol | in n-butyl acetate | in n-propanol | in n-propyl acetate
278.15 K | 0.00236 | 0.0243 | 0.00273 | 0.0201 | 0.00131 | 0.0124 | 0.00758 | 0.0311 | 0.00555 | 0.0247
283.15 K | 0.00398 | 0.0303 | 0.00418 | 0.0257 | 0.00249 | 0.0167 | 0.0105 | 0.0368 | 0.00758 | 0.0305
288.15 K | 0.00677 | 0.0369 | 0.00598 | 0.0314 | 0.00379 | 0.0211 | 0.0129 | 0.0433 | 0.0103 | 0.0371
293.15 K | 0.00912 | 0.0437 | 0.00845 | 0.0381 | 0.00531 | 0.0262 | 0.0163 | 0.051 | 0.0138 | 0.0435
298.15 K | 0.012 | 0.0512 | 0.0105 | 0.046 | 0.00696 | 0.0323 | 0.0222 | 0.0597 | 0.0175 | 0.052
303.15 K | 0.0183 | 0.0601 | 0.0163 | 0.0553 | 0.0107 | 0.0393 | 0.0306 | 0.0688 | 0.0237 | 0.0612
308.15 K | 0.0239 | 0.0707 | 0.0219 | 0.0661 | 0.0161 | 0.0482 | 0.0387 | 0.08 | 0.0298 | 0.0716
313.15 K | 0.0345 | 0.0812 | 0.0311 | 0.0782 | 0.0248 | 0.0587 | 0.0467 | 0.0915 | 0.0399 | 0.0834
